Consider 16 compounds from patent publication EP1388586A2, “Identification of broadly reactive DR restricted epitopes” (priority 1998, dated 1999).

In test [1] the test system is panel of purified HLA DR molecules. Type of test: binding, human.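 Note: competitive inhibition of radiolabeled probe peptide binding to purified HLA DR molecules, with inhibitory potency of unlabeled peptides taken as an approximation of affinity.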
The target of test [2] is T1, DRB1*0101 (DR1) (Homo sapiens, UniProt P01903+P01911, A100R/D57E/F55L/F60I/F76Y/I96L/L162R/M171V/P40L/Q125E/R42F/V115G/Y59C).
T1 construct: used as sources of human HLA class II molecules; endogenous in cells; host or cells: LG2 (EBV-transformed homozygous B cell line)
The test can be described thus: Class II peptide-binding assay, DR1.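 Note: competition assay: unlabeled test peptides inhibit binding of a radiolabeled probe peptide to purified DR, with half-maximal inhibition taken as an approximate dissociation constant Kd.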 The note with it: read-out: DR1 nM (In IC50 Format); purified HLA DR1.

The target of test [3] is T2, DRB5*0101 (DR2w2a) (Homo sapiens, UniProt P01903+Q30154).
T2 construct: used as sources of human HLA class II molecules; endogenous in cells; host or cells: GM3107 (EBV-transformed homozygous B cell line)
The test can be described thus: Class II peptide-binding assay, DR2w2a (DR2w2B2).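 Note: competitive binding assay: unlabeled peptide inhibiting binding of a radiolabeled probe peptide to purified DR molecules at pH 7.0, IC50 approximating Kd, lower means stronger binding.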 As to conditions: read-out: DR2w2B2 nM (In IC50 Format); purified HLA DR2w2β2.
Description: (§1) Class II peptide-binding assays. […] These assays were chosen as to be representative of the most common DR alleles.
(§2) Radiolabeled peptides were iodinated using the chloramine-T method. […] In appropriate stoichiometric conditions, the IC50 of an unlabeled test peptide to the purified DR is a reasonable approximation of the affinity of interaction (Kd). Peptides were tested in two to four completely independent experiments. […] Final detergent concentration in the incubation mixture was 0.05% Nonidet P-40. Assays were performed at pH 7.0 with the exception of DR3, which was performed at pH 4.5, and DRw53, which was performed at pH 5.0.
(§3) All subsequent inhibition and direct binding assays were the performed using these class II concentrations.

Test [4] concerns the target T3, DRB1*0301 (DR3w17) (Homo sapiens, UniProt P01903+P01911, A100K/A102G/A103R/A169T/F55Y/I96L/K41T/L162R/M171V/P40S/Q125H/Q178H/Q39Y/R42S/S66N/T106N/T262R/W38E/Y61H).
T3 construct: used as sources of human HLA class II molecules; endogenous in cells; host or cells: MAT (EBV-transformed homozygous B cell line)
Description: Class II peptide-binding assay, DR3 (pH 4.5).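 Note: unlabeled peptide competing with a radiolabeled probe peptide for binding to affinity-purified HLA-DR3, IC50 regarded as an approximation of Kd.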 The note with it: read-out: DR3 nM (In IC50 Format); purified HLA DR3.
Description: as §1
(§4) In appropriate stoichiometric conditions, the IC50 of an unlabeled test peptide to the purified DR is a reasonable approximation of the affinity of interaction (Kd). Peptides were tested in two to four completely independent experiments. […] Final detergent concentration in the incubation mixture was 0.05% Nonidet P-40. Assays were performed at pH 7.0 with the exception of DR3, which was performed at pH 4.5, and DRw53, which was performed at pH 5.0.
as §3

The target in test [5] is T4, DRB1*0401 (DR4w4) (Homo sapiens, UniProt P01903+P01911, A100K/A169T/F76Y/I96L/K127E/L162R/M171V/N62H/P40V/Q125Y/R42H/S133A/S149N/S66Y/V115G/V209L/W38E).
T4 construct: used as sources of human HLA class II molecules; endogenous in cells; host or cells: PREISS (EBV-transformed homozygous B cell line)
Description: Class II peptide-binding assay, DR4w4.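 Note: unlabeled test peptides compete with a radiolabeled probe peptide for binding to affinity-purified HLA-DR, with DR amount titrated to capture a small fraction of label, IC50 approximating Kd.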 The note with it: read-out: DR4w4 nM (In IC50 Format); purified HLA DR4w4.

Test [6] concerns the target T5, DRB10404 (DR4w14) (Homo sapiens, UniProt P01903+P01911, A100R/A169T/F76Y/I96L/K127E/L162R/M171V/N62H/P40V/Q125Y/R42H/S133A/S149N/S66Y/V209L/W38E).
T5 construct: used as sources of human HLA class II molecules; endogenous in cells; host or cells: BIN40 (EBV-transformed homozygous B cell line)
Description: Class II peptide-binding assay, DR4w14.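 Note: unlabeled peptides compete with a radiolabeled probe for binding to affinity-purified HLA-DR, neutral pH, class II amount titrated to bind a small fraction of label, IC50 approximates Kd.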 The note with it: read-out: DR4w14 nM (In IC50 Format); purified HLA DR4w14.
Description: as §1, §4, §3

In test [7] the target is T6, DRB1*1101 (DR5w11) (Homo sapiens, UniProt P01903+P01911, A100R/A169T/A87E/I96F/K41T/L162R/M171V/P40S/Q125H/Q178H/Q39Y/Q99D/R42S/S66Y/T262R/V115G/W38E).
T6 construct: used as sources of human HLA class II molecules; endogenous in cells; host or cells: SWEIG (EBV-transformed homozygous B cell line)
T6 sequence (P01903 26-254, other chains not shown): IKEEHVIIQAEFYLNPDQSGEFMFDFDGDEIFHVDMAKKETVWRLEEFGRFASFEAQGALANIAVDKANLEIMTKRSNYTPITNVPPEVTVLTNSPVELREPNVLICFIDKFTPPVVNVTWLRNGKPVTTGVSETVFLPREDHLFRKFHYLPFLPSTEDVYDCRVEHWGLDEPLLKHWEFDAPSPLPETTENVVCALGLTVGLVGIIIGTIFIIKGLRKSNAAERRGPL
Description: Class II peptide-binding assay, DR5w11.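 Note: competition by unlabeled test peptide against iodinated probe peptide binding to affinity-purified HLA-DR, class II amount titrated beforehand, half-maximal inhibitory concentration read as approximate Kd.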 As to conditions: read-out: DR5w11 nM (In IC50 Format); purified HLA DR5w11.

Test [8] concerns the target DRB1*0701 (DR7) (Homo sapiens, UniProt P01903+P01911, A100R/A102G/A103Q/D57E/D86V/E43K/F76Y/K127E/L162R/M171V/P40G/Q125H/Q99D/R33Q/R42Y/R54Q/S133A/S66F/T210M/V115G/Y107V/Y59L/Y89S). Description: Class II peptide-binding assay, DR7.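 Note: unlabeled peptides compete with an iodinated probe peptide for binding to affinity-purified HLA-DR at neutral pH, DR amount titered to bind a small tracer fraction, IC50 approximating Kd.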 As to conditions: read-out: DR7 nM (In IC50 Format); purified HLA DR7.
Description: as §1, §2, §3
Setting [9] is: Table V B) Correct Predictions, 12 DR molecules listed.

pIC50: −log10 of the molar value. Read-outs that look alike come from different tables or passages of the source. Ends that are not written are not given here.

T3 sequence (P01903 26-254, other chains not shown): as above

In the case of `CC(C)C[C@H](NC(=O)CN)C(=O)N[C@@H](C)C(=O)N[C@@H](Cc1ccc(O)cc1)C(=O)N[C@@H](CCCCN)C(=O)N[C@@H](Cc1ccccc1)C(=O)N[C@H](C(=O)N[C@H](C(=O)N1CCC[C@H]1C(=O)NCC(=O)N[C@@H](C)C(=O)N[C@@H](C)C(=O)N[C@H](C(=O)N1CCC[C@H]1C(=O)N[C@@H](Cc1ccc(O)cc1)C(=O)O)[C@@H](C)O)C(C)C)C(C)C` [Peptide 1188.32], the “total of DR molecules bound” value in test [1] is recorded as “nine”.
`CC(C)C[C@H](NC(=O)CNC(=O)[C@H](C)N)C(=O)N[C@@H](CC(C)C)C(=O)NCC(=O)N[C@@H](CC(N)=O)C(=O)N[C@H](C(=O)N[C@@H](CO)C(=O)N[C@H](C(=O)N[C@H](C(=O)N[C@@H](CC(C)C)C(=O)N[C@@H](CC(C)C)C(=O)NCC(=O)NCC(=O)N[C@H](C(=O)O)C(C)C)C(C)C)[C@@H](C)O)C(C)C` [Peptide 1188.13]: in test [1], the “Total Alleles Bound” value is on record as 4.
With `CC[C@H](C)[C@H](N)C(=O)N[C@@H](CCCCN)C(=O)N[C@@H](CC(C)C)C(=O)N1CCC[C@H]1C(=O)N[C@H](C(=O)N[C@H](C(=O)N[C@@H](CC(C)C)C(=O)N[C@@H](C)C(=O)N[C@@H](Cc1ccccc1)C(=O)N[C@@H](C)C(=O)N[C@H](C(=O)N[C@@H](CS)C(=O)N[C@@H](Cc1ccccc1)C(=O)N[C@@H](CC(C)C)C(=O)N[C@H](C(=O)N1CCC[C@H]1C(=O)O)[C@@H](C)CC)[C@@H](C)O)[C@@H](C)CC)[C@@H](C)CC` [Peptide 1136.12], the “Total Alleles Bound” value in test [1] came out at 4.
For `CC[C@H](C)[C@H](NC(=O)[C@H](CC(C)C)NC(=O)[C@H](Cc1ccccc1)NC(=O)[C@@H](NC(=O)[C@@H](NC(=O)[C@@H](NC(=O)[C@H](CC(C)C)NC(=O)[C@H](Cc1ccc(O)cc1)NC(=O)[C@H](CCCCN)NC(=O)[C@@H](NC(=O)[C@@H](N)CC(N)=O)C(C)C)C(C)C)[C@@H](C)CC)C(C)C)C(=O)N[C@@H](Cc1ccccc1)C(=O)N[C@@H](Cc1ccccc1)C(=O)N[C@@H](CC(=O)O)C(=O)N[C@@H](CC(C)C)C(=O)O` [Peptide 27.415], the “Total Alleles Bound” value in test [1] worked out at 2.
Take `CC(C)[C@H](NC(=O)[C@H](Cc1ccccc1)NC(=O)[C@@H](N)CCCCN)C(=O)N[C@H](C(=O)N1CCC[C@H]1C(=O)NCC(=O)N[C@@H](C)C(=O)N[C@@H](C)C(=O)N[C@H](C(=O)N1CCC[C@H]1C(=O)N[C@@H](Cc1ccc(O)cc1)C(=O)N[C@@H](C)C(=O)NCC(=O)N[C@@H](CCC(=O)O)C(=O)N1CCC[C@H]1C(=O)O)[C@@H](C)O)C(C)C` [Peptide F107.17]: the “Total Alleles Bound” value in test [1] (setting [9]) is reported as 4.
Turning to `CC[C@H](C)[C@H](NC(=O)[C@H](CC(C)C)NC(=O)[C@H](CCCCN)NC(=O)[C@H](CCSC)NC(=O)[C@H](C)NC(=O)[C@H](CC(C)C)NC(=O)[C@@H]1CCCN1C(=O)[C@@H](NC(=O)[C@H](C)NC(=O)[C@H](Cc1c[nH]cn1)NC(=O)[C@H](CC(N)=O)NC(=O)[C@@H](NC(=O)[C@H](Cc1c[nH]c2ccccc12)NC(=O)[C@H](CC(N)=O)NC(=O)[C@@H](N)Cc1c[nH]cn1)C(C)C)C(C)C)C(=O)O` [Peptide 1188.34], in test [1], the “Total Alleles Bound” value is recorded as 9 and the “total of DR molecules bound” value is on record as “nine”.
As for `CC(C)C[C@H](NC(=O)[C@H](Cc1c[nH]c2ccccc12)NC(=O)[C@@H](NC(=O)[C@H](Cc1ccccc1)NC(=O)[C@@H](NC(=O)[C@@H]1CCCN1C(=O)[C@H](CC(C)C)NC(=O)[C@H](C)NC(=O)[C@@H]1CCCN1C(=O)[C@H](CC(C)C)NC(=O)[C@H](Cc1ccccc1)NC(=O)[C@H](Cc1ccccc1)NC(=O)[C@H](CCC(N)=O)NC(=O)[C@H](CO)NC(=O)[C@@H](NC(=O)[C@@H](N)CC(C)C)[C@@H](C)O)C(C)C)[C@@H](C)O)C(=O)O` [Peptide 1136.16], the “Total Alleles Bound” value in test [1] came to 7.
For the compound `CC[C@H](C)[C@H](NC(=O)[C@H](CC(=O)O)NC(=O)[C@H](CC(C)C)NC(=O)[C@@H](NC(=O)CNC(=O)[C@@H](NC(=O)[C@@H](NC(=O)[C@@H](NC(=O)[C@@H](NC(=O)[C@H](C)NC(=O)[C@H](CC(C)C)NC(=O)[C@@H](NC(=O)[C@H](CC(N)=O)NC(=O)[C@H](CO)NC(=O)[C@H](CC(C)C)NC(=O)[C@@H](N)CC(N)=O)C(C)C)[C@@H](C)O)[C@@H](C)CC)[C@@H](C)O)[C@@H](C)O)C(C)C)C(=O)O` [Peptide 1136.24], the “Total Alleles Bound” value in test [1] is 4.
In the case of `CC[C@H](C)[C@H](NC(=O)[C@H](CO)NC(=O)[C@H](CO)NC(=O)[C@H](CC(N)=O)NC(=O)[C@@H](NC(=O)[C@@H](NC(=O)[C@H](CC(N)=O)NC(=O)[C@H](Cc1ccccc1)NC(=O)[C@@H](N)C(C)C)C(C)C)C(C)C)C(=O)NCC(=O)N[C@@H](CC(C)C)C(=O)N[C@H](C(=O)N[C@@H](CCSC)C(=O)N[C@H](C(=O)N[C@@H](CC(C)C)C(=O)O)C(C)C)[C@@H](C)CC` [Peptide F107.23], the “Total Alleles Bound” value in test [1] (setting [9]) is given as 4.
As for LVEALYLVSGERGFFYTPKT [Peptide 734.03], the negative-log IC50 (pIC50) in test [2] was 7.40; in test [3], 5.74; in test [4], 5.80; in test [5] it was 5.94; in test [6], 6.15; in test [7] it was 5.60. In addition, the pIC50 in test [8] was 6.03.
Turning to `CC[C@H](C)[C@H](NC(=O)[C@H](CO)NC(=O)[C@H](CO)NC(=O)[C@H](CC(N)=O)NC(=O)[C@@H](NC(=O)[C@@H](NC(=O)[C@H](CC(N)=O)NC(=O)[C@H](Cc1ccccc1)NC(=O)[C@@H](NC(=O)[C@H](CO)NC(=O)[C@@H](N)CO)C(C)C)C(C)C)C(C)C)C(=O)NCC(=O)N[C@@H](CC(C)C)C(=O)N[C@H](C(=O)N[C@@H](CCSC)C(=O)O)[C@@H](C)CC` [Peptide 27.392], in test [1], the “Total Alleles Bound” value was determined as 6.
As to `CC[C@H](C)[C@H](NC(=O)[C@H](CO)NC(=O)[C@H](CO)NC(=O)[C@H](CC(N)=O)NC(=O)[C@@H](NC(=O)[C@@H](NC(=O)[C@H](CC(N)=O)NC(=O)[C@@H](N)Cc1ccccc1)C(C)C)C(C)C)C(=O)NCC(=O)N[C@@H](CC(C)C)C(=O)N[C@H](C(=O)N[C@@H](CCSC)C(=O)N[C@H](C(=O)N[C@@H](CC(C)C)C(=O)N[C@@H](CO)C(=O)O)C(C)C)[C@@H](C)CC` [Peptide 27.384], in test [1] (setting [9]), the “Total Alleles Bound” value is 4.
Regarding NPVVHFFKNIVTPRTPPPS [Peptide 765.09], the pIC50 in test [2] was 7.87; in test [3], 6.80; in test [4], 4.30; in test [5] it was 8.13; in test [6], 7.45; in test [7], 7.73. Besides, in test [8], the pIC50 is 7.18.
In the case of `CC(C)[C@H](NC(=O)[C@H](CO)NC(=O)[C@@H](NC(=O)[C@H](C)NC(=O)[C@H](CO)NC(=O)[C@H](CO)NC(=O)[C@H](C)NC(=O)[C@H](C)NC(=O)[C@H](Cc1ccc(O)cc1)NC(=O)[C@@H](NC(=O)[C@H](CO)NC(=O)CNC(=O)[C@H](CCC(N)=O)NC(=O)[C@@H]1CCCN1C(=O)[C@@H](N)CCC(=O)O)[C@@H](C)O)[C@@H](C)O)C(=O)N[C@@H](CC(=O)O)C(=O)O` [Peptide 1136.71], in test [1], the “Total Alleles Bound” value is given as 5.
Regarding YAAYVKLTAARKFA-NH2 [Peptide 806.03], the pIC50 is 8.68 in test [2]; 9.15 in test [3]; 4.64 in test [4]; 7.67 in test [5]; 5.34 in test [6]; 8.89 in test [7]. The pIC50 in test [8] was 8.36.
On to RLANSLVHSSNNFGAILSS [Peptide 735.03], for which the pIC50 was 7.07 in test [2]; 5.00 in test [3]; 4.60 in test [4]; 7.96 in test [5]; 7.89 in test [6]; 6.69 in test [7]. The negative-log IC50 (pIC50) in test [8] was 6.26.

As usually defined, the pIC50 is the IC50 on a negative log10 scale, so that one unit is a factor of ten.
